Tests used:
[1] = system: γ-H2AX in cyclin D1^-/- rescue MEFs; test: γ-H2AX abundance / H2A Ser139 phosphorylation after doxorubicin; assay type: cell-based, mouse; conditions: cyclin D1^WT rescued cyclin D1^-/- MEFs, p20 and p21, Western blot
Method: Whole-cell lysates (50 μg) were separated by 10% SDS-PAGE gel, and the proteins were transferred to nitrocellulose membrane for Western blotting using the following antibodies: anti-FLAG antibody (M2 Aldrich, #F1804, St. Louis, MO), anti-GST (Cell Signaling, #2624, Danvers, MA), anti-β-tubulin (Santa Cruz Biotechnology, #sc-55529, Santa Cruz, CA), anti-Vinculin (Sigma-Aldrich, #V9131 St. Louis, MO), Topoisomerase 2 A (Santa Cruz Biotechnology, #sc-365916, Santa Cruz, CA), Histone 2B Serine 14 P (Santa Cruz Biotechnology, #sc-31671, Santa Cruz, CA), Histone 2B (Santa Cruz Biotechnology, #sc-10808, Santa Cruz, CA), γH2A.X (Cell Signaling, #9718, Danvers, MA) and H2A.X (Cell Signaling, #2595, Danvers, MA).

[2] = system: cyclin D1-/- 3T3 rescue cells; test: Etoposide sensitivity (cell viability); assay type: cell-based, mouse; conditions: 5, 10 µM, 24 h, N=6
CDK4 = test: Mammalian two-hybrid, 293 T; assay type: cell-based, human; conditions: 293 T cells, Fig. S7
Method: Mammalian two-hybrid was conducted following the manufacturer’s instruction (Promega, Madison, WI). The human CDK4 cDNA was cloned into pBIND vector, and the human cyclin D1 cDNA (wild type or mutants) was cloned into pACT vector to generate fusion proteins with the DNA-binding domain of Gal4 (Gal4-CDK4), and the activation domain of VP16 (VP16-cyclin D1), respectively. Gal4-CDK4, VP16-cyclin D1 and pG5-Luc reporter containing five copies of Gal4 binding sites upstream of a minimal TATA box and the firefly luciferase gene (Promega) were co-transfected into MCF-7 or HEK-293T cells with Superfect reagent 48 h after transfection, the cells were lysed, and the amount of luciferase activity was quantitated. Transfection efficiency was normalized using renilla luciferase.

Row | Compound | CDK4 binding (CDK4) | also measured
1 | COc1cccc2c1C(=O)c1c(O)c3c(c(O)c1C2=O)C[C@@](O)(C(=O)CO)C[C@@H]3O[C@H]1C[C@H](N)[C@H](O)[C@H](C)O1 [doxorubicin] |  | γ-H2AX abundance [1]: increased
2 | COc1cc([C@@H]2c3cc4c(cc3[C@@H](O[C@@H]3O[C@@H]5CO[C@@H](C)O[C@H]5[C@H](O)[C@H]3O)[C@H]3COC(=O)[C@H]23)OCO4)cc(OC)c1O [etoposide] |  | sensitivity to etoposide ([2]; cyclin D1 rescued cells): more sensitive; change in sensitivity to etoposide ([2]; upon deletion of the E domain): modest but significant reduction in sensitivity
3 | E280A: cyclin D1 point mutant within the E region | maintained enhanced binding | 

Continued, in another order:

Row | CDK4 binding (CDK4) | Compound | also measured
4 | maintained enhanced binding | E278/280 A: cyclin D1 double point mutant within the E region | 
5 | maintained enhanced binding | E278A: cyclin D1 point mutant within the E region | 

Source: PMC10774418, “A cyclin D1 intrinsically disordered domain accesses modified histone motifs to govern gene transcription” (Oncogenesis, 2024)
